Data as given in patent publication US8217004B2, “Sequestering agent for micronutrient fertilisers” (priority 2005, dated 2012).

Columns and labels:
Canola [1] = assay: Pot experiment: availability of Zn fertiliser to Canola grown on alkaline and calcareous soils; format: in vivo, Canola (variety Pinnacle); details: calcareous grey sandy loam (Streaky Bay) and Sodosol (Birchip); 21 days; FIG. 2; LSD=1.72; p<0.01
Description: Topsoils from each location were collected, oven dried and passed through a 2 mm sieve. The experimental fertilisers were mixed with 20g of soil, which was banded between 100 g of the unfertilised bulk soil. Total nutrient application equated to (μg/g soil) P 60, N 27, applied as TGMAP, and Zn 0.2 as ZnSO4.7H2O. Chelate rates were based on the concentrations required to complex between 75 and 100% of the Zn in the fertiliser solution. Rates varied depending on the equilibrium constant (logK) and the stoichiometry of the Zn-ligand complexes. […] Each treatment was replicated four times.
Two pre-germinated Canola seeds (variety Pinnacle) were transferred to each pot. The pots were watered to θg=0.5 with deionised water every second day and evaporation was reduced with polyethylene beads, which were spread over the exposed surface of each pot. The plants were grown for 21 days in a controlled environment growth chamber (10 h dark at 15° C., 14 h light at 20° C., 41% humidity) before the shoots were harvested, rinsed, dried, weighed and then digested in concentrated HNO3. Plant digests were analysed for ^65Zn by gamma spectroscopy and for total nutrient contents by ICP-OES.
Data for shoot dry weight, shoot nutrient concentrations and Zn fertiliser uptake were analysed by analysis of variance (ANOVA). Significance between means was determined using the Least Significant Difference (LSD) test.

[2] = published value; cited from earlier work
[3] = n-Octanol/water partition coefficients (Kow) of metal-ligand complexes, shake-flask method; format: physicochemical
Description: n-Octanol/water partition coefficients (Kow) are commonly used to determine whether molecules can partition into hydrophobic (lipid-soluble) phases. Polar molecules, ie metals, generally partition in the water phase. Neutral, lipid soluble organic molecules may partition within the octanol phase according to their Kow. Most conventional chelate complexes (ie ZnEDTA^2−) partition within the water phase. […] The aim of this experiment was to determine whether Zn-Rhamnolipid complexes would partition within the n-octanol phase. Kow's were measured with varying Rhamnolipid concentrations. […] Final Rhamnolipid concentrations were (mM) 0, 0.1, 0.24, 0.5, 1, 1.5, 2, 2.5. Two millilitres of n-Octanol was added to the solutions before they were shaken end-over-end for 24 hours. Following shaking, 3 ml of solution was removed from the water phase and digested in concentrated HNO3 before analysis for total Zn by ICP-OES. The partition coefficient was calculated according to the equation above.

Canola [4] = assay: Canola dry matter response to foliar applied Zn (shoot immersion); format: in vivo, Canola (var. Pinnacle); details: Zn deficient Canola, shoots immersed five seconds; compared with ZnSO4 or ZnEDTA; FIG. 3; P<0.05, LSD=0.1496
Description: Dry matter response in Zn deficient Canola was used as a measure of fertiliser effectiveness because it considers metabolically available Zn, rather than total Zn uptake. Pre-germinated Canola seedlings (var. […] After 13 days, whole shoots were immersed in ZnSO4.7H2O solutions for five seconds. […] Rhamnolipid rates were high enough to ensure a Zn Kow of at least 50 at the highest Zn application rate. […] Wetting agent was not required in the Rhamnolipid solutions because of the surfactant properties of the ligand. […] After the three-week growth period, plant roots and shoots were harvested, dried and weighed for dry matter production.

Zn Kow ([3]; at the Rhamnolipid rates used for foliar test, at the highest Zn application rate)	Compound	total Zn uptake by canola (roots absorbed and translocated into shoots) (Canola [1])	logK of Zn complex [2]	partitioning of metal-ligand complex into the n-octanol phase (Kow) ([3]; Zn, Mn, Cu, shake-flask, 24 hours, FIG. 1)	plant foliar dry matter response to applied Zn (Canola [4])
	O=C(O)CN(CCN(CC(=O)O)CC(=O)O)CC(=O)O [EDTA, reference compound]	ineffective			
	O=C([O-])CN(CCN(CC(=O)O)CC(=O)O)CC(=O)[O-].[Zn+2] [ZnEDTA]		16.5		
at least 50	rhamnolipid	significantly increased total Zn uptake		dramatically facilitates the transfer of the metal ion from the aqueous phase into the octanol phase	significantly increased dry matter response to Zn
